The values below come from US20210252023A1, “METHODS AND COMPOSITIONS FOR TREATING AND/OR PREVENTING THE PROGRESSION AND/OR ONSET OF AGE-RELATED NEURODEGENERATION” (Enterin, Inc., priority 2018, published 2021).

“Also recorded” adds a separate entry of the source.

A short description of data set [1]: Neuroregeneration in treated adult mouse (cell number in brain areas). Type of data set: in vivo. From the text:
The hypothalamus is of particular interest because it happens to be the site of localization of Aminosterol 1436 in the brain.

Data set [2] is described as follows: Brain distribution of radioactive Aminosterol 1436 after IV or ICV administration (FIG. 1). Conditions: radioactive compound, rat, peripheral vein (IV) or 3rd ventricle (ICV). The data set is classed as in vivo. The source says:
The exact mechanism by which Aminosterol 1436 achieves its effect on preventing, delaying onset, and/or treating neurodegeneration, delaying maturity, retarding aging, and increasing potential lifespan is not known. However, without being bound by theory, Applicant theorizes that the effect of Aminosterol 1436 is likely in part due to the drug's effects on the hypothalamus within the brain of the animal.

Data set [3] deals with HIV. To be noted: tissue culture; U.S. Pat. No. 5,763,430; cited from earlier work.
Data set [4] is described as follows: Dose response of delay in growth of BDF1 mice (Example 1, FIG. 2). Conditions: 5 and 10 mg/kg IV; data not shown. Type of data set: in vivo, B6D2F1 (BDF1) mice. On the procedure:
An experiment was conducted to explore the dose response to a delay in growth of B6D2F1 (BDF1) mice to Aminsoterol 1436. 30 day old male BDF1 mice received either vehicle or Aminosterol 1436 intraveneously (IV) at 5 mg/kg or 10 mg/kg (n=15 for each treatment arm) every 3 days until 51 days of age. The Aminosterol 1436 was administered as a aqueous solution in water. BDF1 mice are available from Charles River Laboratories. The animals were fed standard lab chow, offered ad libitum. The animals were weighed and body length measured every 5 days. […] However, while the control animals reached maturity at 120 days, the animals that received 5 mg/kg of Aminosterol 1436 reached maturity at 150 days, corresponding to a 25% delay in reaching maturity, as measured by end weight. […] Most importantly, both treated and untreated animals reached normal adult dimensions, albeit at different rates.

`CC(C)[C@@H](CC[C@@H](C)[C@H]1CC[C@H]2[C@@H]3[C@H](O)C[C@H]4C[C@@H](NCCCNCCCCNCCCN)CC[C@]4(C)[C@H]3CC[C@]12C)OS(=O)(=O)O` [Aminosterol 1436, trodusquemine]: in data set [1], the “neuroregeneration (number of cells in subependymal zone, olfactory bulb, hypothalamus, thalamus)” value is “stimulates neuroregeneration”. Besides, the “accumulation in the brain” value in data set [2] is “accumulation of Aminosterol 1436 within the centers of the brain that control growth, maturation, and senescence; also recorded: accumulates within the centers of the brain that control growth, maturation and senescence”. In data set [3], the “antiviral activity against HIV” value was “exhibits antiviral activity against HIV in tissue culture”. Further, the linear growth entry in data set [4] is “slowed to a corresponding degree”.
